Measured values from ChEMBL document CHEMBL1201862, “PubChem BioAssay data set” (2004).
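Assay format: 96-well plates, 48-hour exposure. GI50: concentration for 50% inhibition of growth.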 Activity calls are given as the source filed them. Rule as the data show it: active = GI50 up to about 1.1 µM and inactive = higher.

What was measured:
Assay in all cases: NCI anticancer screen, dose series, 48 h
CCRF-CEM = system: CCRF-CEM
NCI-H23 = system: NCI-H23
786-0 = system: 786-0
HOP-62 = system: HOP-62
MOLT-4 = system: MOLT-4
A549 = system: A549
SF-268 = system: SF-268
IGROV-1 = system: IGROV-1
NCI-H460 = system: NCI-H460
T47D = system: T47D
MDA-MB-435 = system: MDA-MB-435
Malme-3M = system: Malme-3M
RXF 393 = system: RXF 393
OVCAR-3 = system: OVCAR-3
MDA-MB-231 = system: MDA-MB-231
SNB-75 = system: SNB-75
NCI-H226 = system: NCI-H226
NCI/ADR-RES = system: NCI/ADR-RES
TK-10 = system: TK-10
MDA-N = system: MDA-N

Measured: GI50

CCCC(=O)OCC(COC(=O)CCC)OC(=O)CCC [TRIBUTYRIN]
inactive: CCRF-CEM 46.1 µM | NCI-H23 > 100 µM | 786-0 > 100 µM | HOP-62 > 100 µM | MOLT-4 73.5 µM | A549 96.6 µM | SF-268 > 100 µM | IGROV-1 > 100 µM | NCI-H460 99.8 µM | T47D > 100 µM | MDA-MB-435 85.7 µM | Malme-3M 41.2 µM | RXF 393 > 100 µM | OVCAR-3 > 100 µM | MDA-MB-231 45.2 µM | SNB-75 36.7 µM | NCI-H226 > 100 µM | NCI/ADR-RES 20.1 µM | TK-10 27.3 µM | MDA-N 65.2 µM
